Results from PubChem BioAssay AID248 (DTP/NCI, 2004).
Where “and” joins values, the source holds several entries; their conditions need not be identical. Identical values can stand only once. Inconclusive results and toxic doses are left out. No stated cut-off is given here; in the data, active means T/C of 150% or more; inactive means T/C below 125%.

Tested on: L1210 leukemia ip in BDF1 mice, survival T/C
Test: NCI In Vivo Anticancer Drug Screen. Data for tumor model L1210 Leukemia (intraperitoneal) in B6D2F1 (BDF1) mice
Conditions: endpoint: mean survival time, higher = longer survival
In short: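 Each compound was tested against a transplantable tumor grown in mice. The endpoint was survival, with treated animals benchmarked against vehicle controls as a simple ratio.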

[1] = dose: 100.0 mg/kg/injection, schedule: Q04DX002 (ip), vehicle: Klucel (hydroxypropylcellulose) (HPC)
[2] = dose: 200.0 mg/kg/injection, schedule: Q04DX002 (ip), vehicle: Klucel (hydroxypropylcellulose) (HPC)
[3] = dose: 400.0 mg/kg/injection, schedule: Q04DX002 (ip), vehicle: Klucel (hydroxypropylcellulose) (HPC)
[4] = dose: 100.0 mg/kg/injection, schedule: Q04DX003 (ip), vehicle: Klucel (hydroxypropylcellulose) (HPC)
[5] = dose: 200.0 mg/kg/injection, schedule: Q04DX003 (ip), vehicle: Klucel (hydroxypropylcellulose) (HPC)

Measured: T/C

CC(CCC(CCCCC(CCC(C)CC(C)(C)C)CCC(C)CC(C)(C)C)CCC(C)CC(C)(C)C)CC(C)(C)C (stereo not drawn)
inactive: dose: 75.0 mg/kg/injection, schedule: Q01DX001 (ip), vehicle: saline with Tween-80 103 % of control | dose: 150.0 mg/kg/injection, schedule: Q01DX001 (ip), vehicle: saline with Tween-80 98 % of control | dose: 300.0 mg/kg/injection, schedule: Q01DX001 (ip), vehicle: saline with Tween-80 98 % of control

CCCCCCCCCCNCCCCNCCCCCCCCCC
inactive: dose: 1.56 mg/kg/injection, schedule: Q01DX009 (ip), vehicle: Klucel (hydroxypropylcellulose) (HPC) 92 % of control | dose: 3.12 mg/kg/injection, schedule: Q01DX009 (ip), vehicle: Klucel (hydroxypropylcellulose) (HPC) 87 % of control | dose: 6.25 mg/kg/injection, schedule: Q01DX009 (ip), vehicle: Klucel (hydroxypropylcellulose) (HPC) 92 % of control and 93 % of control

O=C(O)COc1ccccc1C(=O)O
inactive: dose: 5.0 mg/kg/injection, schedule: Q01DX001 (ip), vehicle: saline 100 % of control | dose: 10.0 mg/kg/injection, schedule: Q01DX001 (ip), vehicle: saline 100 % of control | dose: 20.0 mg/kg/injection, schedule: Q01DX001 (ip), vehicle: saline 96 % of control | dose: 20.0 mg/kg/injection, schedule: Q04DX002 (ip), vehicle: Klucel (hydroxypropylcellulose) (HPC) 88 % of control | dose: 40.0 mg/kg/injection, schedule: Q01DX001 (ip), vehicle: saline 96 % of control | dose: 40.0 mg/kg/injection, schedule: Q04DX002 (ip), vehicle: Klucel (hydroxypropylcellulose) (HPC) 98 % of control | dose: 80.0 mg/kg/injection, schedule: Q04DX002 (ip), vehicle: Klucel (hydroxypropylcellulose) (HPC) 100 % of control | dose: 100.0 mg/kg/injection, schedule: Q01DX009 (ip), vehicle: Klucel (hydroxypropylcellulose) (HPC) 89 % of control | [1] 95 % of control | dose: 200.0 mg/kg/injection, schedule: Q01DX009 (ip), vehicle: Klucel (hydroxypropylcellulose) (HPC) 86 % of control | [2] 98 % of control | dose: 400.0 mg/kg/injection, schedule: Q01DX009 (ip), vehicle: Klucel (hydroxypropylcellulose) (HPC) 89 % of control | [3] 103 % of control

COC1C(O)C(O)OC(CO)C1O (stereo not drawn)
inactive: dose: 50.0 mg/kg/injection, schedule: Q04DX003 (ip), vehicle: saline 112 % of control | dose: 100.0 mg/kg/injection, schedule: Q04DX003 (ip), vehicle: saline 96 % of control | dose: 200.0 mg/kg/injection, schedule: Q04DX003 (ip), vehicle: saline 104 % of control | dose: 400.0 mg/kg/injection, schedule: Q04DX003 (ip), vehicle: saline 96 % of control | dose: 500.0 mg/kg/injection, schedule: Q01DX009 (ip), vehicle: saline 94 % of control | dose: 1000.0 mg/kg/injection, schedule: Q01DX009 (ip), vehicle: saline 104 % of control

CCOC(=O)C(O)(C#CC(C)C)C1CCCC1 (stereo not drawn)
inactive: dose: 100.0 mg/kg/injection, schedule: Q01DX001 (ip), vehicle: saline 107 % of control | dose: 200.0 mg/kg/injection, schedule: Q01DX001 (ip), vehicle: saline 105 % of control | dose: 400.0 mg/kg/injection, schedule: Q01DX001 (ip), vehicle: saline 102 % of control

C1CCC2C[N-]CCC2C1.C1CCC2C[N-]CCC2C1.C1CCC2C[N-]CCC2C1.C1CCC2C[N-]CCC2C1.[Cl][Rh][Cl] (stereo not drawn)
inactive: dose: 0.5 mg/kg/injection, schedule: Q01DX009 (ip), vehicle: Klucel (hydroxypropylcellulose) (HPC) 101 % of control | dose: 1.0 mg/kg/injection, schedule: Q01DX009 (ip), vehicle: Klucel (hydroxypropylcellulose) (HPC) 108 % of control | dose: 2.0 mg/kg/injection, schedule: Q01DX009 (ip), vehicle: Klucel (hydroxypropylcellulose) (HPC) 110 % of control | dose: 2.0 mg/kg/injection, schedule: Q01DX009 (ip), vehicle: citric acid 92 % of control | dose: 3.12 mg/kg/injection, schedule: Q01DX009 (ip), vehicle: saline with Tween-80 105 % of control | dose: 3.12 mg/kg/injection, schedule: Q04DX003 (ip), vehicle: saline with Tween-80 105 % of control | dose: 4.0 mg/kg/injection, schedule: Q01DX009 (ip), vehicle: Klucel (hydroxypropylcellulose) (HPC) 103 % of control | dose: 6.25 mg/kg/injection, schedule: Q04DX003 (ip), vehicle: saline with Tween-80 108 % of control

Nc1ccc2c(c1)C(=O)c1c(F)cccc1-2
inactive: dose: 100.0 mg/kg/injection, schedule: Q04DX003 (ip), vehicle: acetone 98 % of control | dose: 200.0 mg/kg/injection, schedule: Q04DX003 (ip), vehicle: acetone 94 % of control | dose: 400.0 mg/kg/injection, schedule: Q04DX003 (ip), vehicle: acetone 91 % of control

CCCCC[P+](c1ccccc1)(c1ccccc1)c1ccccc1
inactive: dose: 12.5 mg/kg/injection, schedule: Q04DX002 (ip), vehicle: Klucel (hydroxypropylcellulose) (HPC) 109 % of control | dose: 25.0 mg/kg/injection, schedule: Q04DX002 (ip), vehicle: Klucel (hydroxypropylcellulose) (HPC) 106 % of control | dose: 50.0 mg/kg/injection, schedule: Q04DX002 (ip), vehicle: Klucel (hydroxypropylcellulose) (HPC) 109 % of control

O=C1CSCc2ccccc21
inactive: [1] 103 % of control | [2] 95 % of control | [3] 95 % of control

Nc1nc(=S)ss1
inactive: [4] 108 % of control | [5] 105 % of control | dose: 400.0 mg/kg/injection, schedule: Q04DX003 (ip), vehicle: Klucel (hydroxypropylcellulose) (HPC) 97 % of control

Brc1c2ccccc2cc2ccccc12
inactive: dose: 100.0 mg/kg/injection, schedule: Q04DX002 (ip), vehicle: gum acacia 101 % of control | dose: 200.0 mg/kg/injection, schedule: Q04DX002 (ip), vehicle: gum acacia 93 % of control | dose: 400.0 mg/kg/injection, schedule: Q04DX002 (ip), vehicle: gum acacia 96 % of control

O=[N+]([O-])c1ccc(CCBr)cc1
inactive: dose: 50.0 mg/kg/injection, schedule: Q01DX001 (ip), vehicle: carboxymethylcellulose (CMC) 96 % of control | dose: 100.0 mg/kg/injection, schedule: Q01DX001 (ip), vehicle: carboxymethylcellulose (CMC) 94 % of control | dose: 200.0 mg/kg/injection, schedule: Q01DX001 (ip), vehicle: carboxymethylcellulose (CMC) 100 % of control | dose: 400.0 mg/kg/injection, schedule: Q01DX001 (ip), vehicle: carboxymethylcellulose (CMC) 105 % of control

COC(=O)C1C2C=CC(C2=C(C)C)C1C(=O)OC (stereo not drawn)
inactive: dose: 50.0 mg/kg/injection, schedule: Q04DX003 (ip), vehicle: Klucel (hydroxypropylcellulose) (HPC) 100 % of control | dose: 100.0 mg/kg/injection, schedule: Q01DX001 (ip), vehicle: Klucel (hydroxypropylcellulose) (HPC) 92 % of control | [4] 98 % of control | dose: 200.0 mg/kg/injection, schedule: Q01DX001 (ip), vehicle: Klucel (hydroxypropylcellulose) (HPC) 96 % of control | [5] 94 % of control | dose: 400.0 mg/kg/injection, schedule: Q01DX001 (ip), vehicle: Klucel (hydroxypropylcellulose) (HPC) 91 % of control

COC1OC(COS(C)(=O)=O)C(OS(C)(=O)=O)C(OC(=O)c2ccccc2)C1OS(C)(=O)=O (stereo not drawn)
inactive: [1] 111 % of control | [2] 97 % of control | [3] 97 % of control

CCOC(=O)C1CC(C(=O)OCC)c2nc3ccccc3nc21 (stereo not drawn)
inactive: dose: 50.0 mg/kg/injection, schedule: Q01DX001 (ip), vehicle: other 88 % of control | dose: 100.0 mg/kg/injection, schedule: Q01DX001 (ip), vehicle: other 92 % of control and 86 % of control | dose: 200.0 mg/kg/injection, schedule: Q01DX001 (ip), vehicle: other 89 % of control | dose: 400.0 mg/kg/injection, schedule: Q01DX001 (ip), vehicle: other 92 % of control
